pIC50: −log10 of the molar value. Where a name gives a salt, the structure may show the parent alone. Read-outs that look alike come from different tables or passages of the source.
Key:
Assay type in all cases: biochemical
[1] = molecular target: T1, Recombinant Human Anaplastic Lymphoma Kinase (Homo sapiens, UniProt Q9UM73); test: ALK HTRF kinase assay; conditions: for pIC50: Table B1, cells without percent sign
T1 construct: purchased Invitrogen, Carlsbad, Calif
Outline: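 Compounds were incubated with recombinant human ALK and a biotin-tagged peptide substrate. Product was captured with streptavidin-APC and probed with a europium anti-phosphotyrosine antibody, and plates were read for time-resolved fluorescence. Dose-response data were fitted to derive IC50.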

[2] = molecular target: T2, human JAK3 (a.a. 781-1124) (Homo sapiens, UniProt P52333); test: In vitro JAK kinase assay (HTRF, phosphorylation of a biotinylated peptide), JAK3
T2 construct: JAK3 (a.a. 781-1124); His tag (N); made in house; host or cells: insect cells (baculovirus)
Outline: (§1)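 Kinase reactions ran at room temperature for 1 h with ATP matched per isoform (JAK1 90 μM, JAK2 30 μM, JAK3 3 μM). After an EDTA stop, the phosphorylated biotin-peptide was read by HTRF using Eu-Py20 and SA-APC after 40 min binding.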

TYK2 = TYK2 (Homo sapiens, UniProt P29597); test: TYK2 kinase inhibition (Table A1)
[3] = molecular target: T3, human JAK2 (a.a. 828-1132) (Homo sapiens, UniProt O60674); test: In vitro JAK kinase assay (HTRF, phosphorylation of a biotinylated peptide), JAK2
T3 construct: JAK2 (a.a. 828-1132); His tag (N); made in house; host or cells: insect cells (baculovirus)
Outline: as §1

[4] = molecular target: T4, human JAK1 (a.a. 837-1142) (Homo sapiens, UniProt P23458); test: In vitro JAK kinase assay (HTRF, phosphorylation of a biotinylated peptide), JAK1; conditions: read-out: JAK1 IC50
T4 construct: human JAK1 (a.a. 837-1142); His tag (N); made in house; host or cells: insect cells (baculovirus)
Outline: as §1

[5] = compound at 500 nM or 1 mM, 90 μM ATP
[6] = method AA1 (3 μM ATP) or AA2 (1000 μM ATP), not stated per value
[7] = method AA1 (30 μM ATP) or AA2 (1000 μM ATP), not stated per value
[8] = method AA1 (90 μM ATP) or AA2 (1000 μM ATP), not stated per value
[9] = compound at a concentration of 500 nM or 1 mM (not specified), cells shown as percentage

T1 sequence (Q9UM73 19-1620): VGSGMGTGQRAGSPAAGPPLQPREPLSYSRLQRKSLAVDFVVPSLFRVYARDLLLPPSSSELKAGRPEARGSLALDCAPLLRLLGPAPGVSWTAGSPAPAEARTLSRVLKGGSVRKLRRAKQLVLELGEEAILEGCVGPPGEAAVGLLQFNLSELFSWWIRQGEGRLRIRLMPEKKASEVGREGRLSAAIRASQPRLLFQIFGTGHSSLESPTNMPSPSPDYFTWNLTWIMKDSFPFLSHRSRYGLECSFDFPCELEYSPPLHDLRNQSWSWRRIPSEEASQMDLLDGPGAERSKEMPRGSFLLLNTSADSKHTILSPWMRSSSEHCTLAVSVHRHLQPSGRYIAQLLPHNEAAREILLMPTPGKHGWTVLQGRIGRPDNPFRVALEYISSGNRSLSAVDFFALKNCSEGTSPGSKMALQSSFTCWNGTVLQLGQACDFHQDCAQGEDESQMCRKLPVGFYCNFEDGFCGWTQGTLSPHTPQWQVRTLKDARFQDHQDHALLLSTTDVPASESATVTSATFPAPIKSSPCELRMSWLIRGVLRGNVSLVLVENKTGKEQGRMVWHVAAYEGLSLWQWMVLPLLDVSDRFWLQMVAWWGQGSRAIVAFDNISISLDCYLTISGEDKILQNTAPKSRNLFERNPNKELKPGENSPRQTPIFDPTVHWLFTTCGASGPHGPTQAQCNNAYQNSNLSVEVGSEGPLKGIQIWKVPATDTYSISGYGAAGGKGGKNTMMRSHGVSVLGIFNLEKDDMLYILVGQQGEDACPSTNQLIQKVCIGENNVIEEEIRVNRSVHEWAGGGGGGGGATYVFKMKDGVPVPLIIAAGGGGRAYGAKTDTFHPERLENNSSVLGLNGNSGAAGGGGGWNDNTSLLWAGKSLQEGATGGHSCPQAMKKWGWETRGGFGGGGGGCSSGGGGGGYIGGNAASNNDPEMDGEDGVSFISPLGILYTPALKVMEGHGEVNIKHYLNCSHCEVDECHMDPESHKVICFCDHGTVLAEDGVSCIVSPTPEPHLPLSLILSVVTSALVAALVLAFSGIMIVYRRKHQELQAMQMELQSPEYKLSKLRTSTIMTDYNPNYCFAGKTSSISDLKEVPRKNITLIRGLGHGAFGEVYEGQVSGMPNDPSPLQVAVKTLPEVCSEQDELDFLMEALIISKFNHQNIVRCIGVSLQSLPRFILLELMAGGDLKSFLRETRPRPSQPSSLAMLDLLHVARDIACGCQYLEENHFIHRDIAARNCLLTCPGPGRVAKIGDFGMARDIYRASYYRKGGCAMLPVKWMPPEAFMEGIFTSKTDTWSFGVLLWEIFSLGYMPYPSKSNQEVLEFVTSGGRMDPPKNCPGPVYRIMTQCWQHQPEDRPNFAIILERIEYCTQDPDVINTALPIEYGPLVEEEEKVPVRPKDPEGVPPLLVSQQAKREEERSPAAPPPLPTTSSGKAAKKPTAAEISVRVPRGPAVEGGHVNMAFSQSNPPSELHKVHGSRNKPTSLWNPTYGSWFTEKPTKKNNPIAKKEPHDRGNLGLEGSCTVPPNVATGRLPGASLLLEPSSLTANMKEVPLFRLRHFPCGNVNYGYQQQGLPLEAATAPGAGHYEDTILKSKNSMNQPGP
TYK2, sequence (P29597 whole entry): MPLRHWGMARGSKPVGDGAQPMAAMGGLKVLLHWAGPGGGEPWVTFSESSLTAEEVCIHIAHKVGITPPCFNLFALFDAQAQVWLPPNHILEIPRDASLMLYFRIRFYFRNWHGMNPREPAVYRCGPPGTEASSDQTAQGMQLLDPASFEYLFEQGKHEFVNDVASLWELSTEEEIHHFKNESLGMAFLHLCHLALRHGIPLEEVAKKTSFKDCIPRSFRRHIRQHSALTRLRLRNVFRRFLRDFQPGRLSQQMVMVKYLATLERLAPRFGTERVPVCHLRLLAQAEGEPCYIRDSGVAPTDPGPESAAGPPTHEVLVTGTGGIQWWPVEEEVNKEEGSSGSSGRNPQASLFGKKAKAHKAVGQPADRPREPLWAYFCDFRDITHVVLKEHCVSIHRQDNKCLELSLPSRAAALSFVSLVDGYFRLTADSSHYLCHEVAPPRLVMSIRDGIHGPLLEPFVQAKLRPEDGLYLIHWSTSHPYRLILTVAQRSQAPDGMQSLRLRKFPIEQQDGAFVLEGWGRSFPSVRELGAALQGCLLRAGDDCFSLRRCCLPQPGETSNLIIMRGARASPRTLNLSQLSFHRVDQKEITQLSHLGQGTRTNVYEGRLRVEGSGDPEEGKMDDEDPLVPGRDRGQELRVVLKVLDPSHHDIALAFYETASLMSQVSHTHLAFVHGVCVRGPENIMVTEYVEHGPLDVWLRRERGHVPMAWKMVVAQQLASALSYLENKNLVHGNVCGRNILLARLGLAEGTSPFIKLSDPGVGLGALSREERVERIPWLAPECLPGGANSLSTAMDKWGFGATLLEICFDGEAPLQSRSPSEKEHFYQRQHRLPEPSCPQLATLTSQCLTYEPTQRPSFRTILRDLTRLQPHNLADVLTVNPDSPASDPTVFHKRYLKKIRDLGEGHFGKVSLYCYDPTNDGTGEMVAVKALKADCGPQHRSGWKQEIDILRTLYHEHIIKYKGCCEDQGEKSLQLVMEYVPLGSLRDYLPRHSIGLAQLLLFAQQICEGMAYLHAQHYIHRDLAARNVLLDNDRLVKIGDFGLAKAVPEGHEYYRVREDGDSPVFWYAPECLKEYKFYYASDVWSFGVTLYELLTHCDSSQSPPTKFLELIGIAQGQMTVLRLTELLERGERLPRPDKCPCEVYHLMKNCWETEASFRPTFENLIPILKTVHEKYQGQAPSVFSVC
T2 sequence (P52333 781-1124): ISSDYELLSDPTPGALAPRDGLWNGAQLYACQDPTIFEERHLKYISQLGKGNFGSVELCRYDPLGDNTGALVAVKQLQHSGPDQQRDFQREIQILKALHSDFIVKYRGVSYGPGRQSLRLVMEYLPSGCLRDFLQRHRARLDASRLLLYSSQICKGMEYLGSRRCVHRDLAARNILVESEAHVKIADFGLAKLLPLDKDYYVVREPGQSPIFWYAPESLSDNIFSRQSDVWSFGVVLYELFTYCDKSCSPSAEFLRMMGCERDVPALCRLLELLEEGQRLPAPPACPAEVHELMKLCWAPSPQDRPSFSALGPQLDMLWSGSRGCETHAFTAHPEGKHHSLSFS
T4 sequence (P23458 849-1154): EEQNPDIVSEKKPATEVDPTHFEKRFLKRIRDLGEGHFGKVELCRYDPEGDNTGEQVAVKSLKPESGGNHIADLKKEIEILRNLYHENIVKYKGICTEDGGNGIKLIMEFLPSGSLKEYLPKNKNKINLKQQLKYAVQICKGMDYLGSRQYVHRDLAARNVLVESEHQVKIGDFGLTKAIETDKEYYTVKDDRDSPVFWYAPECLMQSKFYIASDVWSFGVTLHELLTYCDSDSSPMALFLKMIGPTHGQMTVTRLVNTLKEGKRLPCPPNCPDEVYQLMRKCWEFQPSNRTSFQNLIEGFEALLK
T3 sequence (O60674 828-1132): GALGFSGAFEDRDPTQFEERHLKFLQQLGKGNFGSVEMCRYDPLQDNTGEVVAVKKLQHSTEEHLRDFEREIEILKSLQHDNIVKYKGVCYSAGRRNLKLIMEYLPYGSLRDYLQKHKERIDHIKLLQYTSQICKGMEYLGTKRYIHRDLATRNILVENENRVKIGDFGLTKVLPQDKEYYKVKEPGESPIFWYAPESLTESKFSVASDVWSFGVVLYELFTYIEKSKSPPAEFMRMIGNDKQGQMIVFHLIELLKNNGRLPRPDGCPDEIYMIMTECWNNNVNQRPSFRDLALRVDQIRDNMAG

| SMILES | pIC50 [1] | pIC50 ([2]; Table B1) | pIC50 (TYK2; Table B1) | pIC50 ([3]; Table B1) | pIC50 ([4]; Table B1) | ALK % of inhibition at a concentration of 500 nM or 1 mM [1, 5] | pIC50 [2, 6] | pIC50 (TYK2) | pIC50 [3, 7] | pIC50 [4, 8] | ALK % of inhibition at a concentration of 500 nM or 1 mM [1, 9] |
| --- | --- | --- | --- | --- | --- | --- | --- | --- | --- | --- | --- |
| O=C(c1cc2cc(c1)Nc1nc(ncc1Cl)Nc1cccc(c1)CC2)N1CCCC(O)C1 (stereo not shown) [Example B12, 1-{[6-Chloro-2,4,8,22-tetraazatetracyclo[14.3.1.1(3,7).1(9,13)]docosa-1(20), 3(22),4,6,9(21),10,12,16,18-nonaen-11-yl]carbonyl}piperidin-3-ol trifluoroacetate] | < 5.00 | 6.35 | 6.51 | 6.95 | 6.63 |  |  |  |  |  |  |
| Cn1ccc(C(=O)Nc2ccc3cc2CCc2cccc(c2)Nc2ncc(Cl)c(n2)N3)n1 [Example B31, N-[6-Chloro-2,4,8,22-tetraazatetracyclo[14.3.1.1(3,7).1(9,13)]docosa-1(20), 3(22),4,6,9(21),10,12,16,18-nonaen-12-yl]-1-methyl-1H-pyrazole-3-carboxamide trifluoroacetate] | < 5.00 | 7.16 | 8.00 | 8.43 | 8.27 |  |  |  |  |  |  |
| O=C(COc1ccc2cc1CCc1cccc(c1)Nc1ncc(Cl)c(n1)N2)Nc1ccccc1 [Example A18, 2-{[6-Chloro-2,4,8,22-tetraazatetracyclo[14.3.1.1(3,7).1(9,13)]docosa-1(20),3(22),4,6,9(21),10,12,16,18-nonaen-12-yl]oxy}-N-phenylacetamide trifluoroacetate] |  |  |  |  |  | 59% | 7.64 | 7.96 | 8.48 | 8.35 |  |
| Cc1cc(C)c(C#N)c(N2CCC(CC(=O)Nc3ccc4cc3CCc3cncc(c3)Nc3ncc(Cl)c(n3)N4)CC2)n1 [Example A239, N-[6-Chloro-2,4,8,18,22-pentaazatetracyclo[14.3.1.1(3,7).1(9,13)]docosa-1(20),3(22),4,6,9(21),10,12,16,18-nonaen-12-yl]-2-[1-(3-cyano-4,6-dimethylpyridin-2-yl)piperidin-4-yl]acetamide tris(trifluoroacetate)] |  |  |  |  |  | 17% | < 6.40 | < 6.40 | 6.65 | 7.80 |  |
| COc1cccc(NC(=O)Nc2ccc3cc2CCc2cccc(c2)Nc2ncc(Cl)c(n2)N3)c1 [Example B100, N-[6-Chloro-2,4,8,22-tetraazatetracyclo[14.3.1.1(3,7).1(9,13)]docosa-1(20), 3(22),4,6,9(21),10,12,16,18-nonaen-12-yl]-N′-(3-methoxyphenyl)urea trifluoroacetate] |  | 7.40 | 8.06 | 8.33 | 9.04 |  |  |  |  |  | 44% |
| Cc1cc(C(=O)N2CCN(CC(=O)Nc3ccc4cc3CCc3cccc(c3)Nc3ncc(Cl)c(n3)N4)CC2)no1 [Example A123, N-[6-Chloro-2,4,8,22-tetraazatetracyclo[14.3.1.1(3,7).1(9,13)]docosa-1(20),3(22),4,6,9(21),10,12,16,18-nonaen-12-yl]-2-{4-[(5-methylisoxazol-3-yl)carbonyl]piperazin-1-yl}acetamide bis(trifluoroacetate)] |  |  |  |  |  | 26% | 7.17 | 8.08 | 8.02 | 8.14 |  |
| O=C(Nc1ccc2cc1CCc1cccc(c1)Nc1ncc(Cl)c(n1)N2)[C@@H]1CCN(C(=O)Nc2ccccc2)C1 [Example A54, (3R)—N(3)-[6-Chloro-2,4,8,22-tetraazatetracyclo[14.3.1.1(3,7).1(9,13)]docosa-1(20),3(22),4,6,9(21),10,12,16,18-nonaen-12-yl]-N(1)-phenylpyrrolidine-1,3-dicarboxamide trifluoroacetate] |  |  |  |  |  | 54% | 8.46 | 7.92 | 8.54 | 8.40 |  |
| O=C(Nc1cccc(F)c1)Nc1cc2cc(c1)Nc1nc(ncc1Cl)Nc1cccc(c1)CC2 [Example B214, N-[6-Chloro-2,4,8,22-tetraazatetracyclo[14.3.1.1(3,7).1(9,13)]docosa-1(20),3(22),4,6,9(21),10,12,16,18-nonaen-11-yl]-N′-(3-fluorophenyl)urea trifluoroacetate] |  | 6.64 | < 6.00 | 6.55 | < 6.00 |  |  |  |  |  | 39% |
| N#Cc1ccccc1S(=O)(=O)Nc1ccc2cc1CCc1cccc(c1)Nc1ncc(Cl)c(n1)N2 [Example B155, N-[6-Chloro-2,4,8,22-tetraazatetracyclo[14.3.1.1(3,7).1(9,13)]docosa-1(20), 3(22),4,6,9(21),10,12,16,18-nonaen-12-yl]-2-cyanobenzenesulfonamide trifluoroacetate] | < 6.00 | 7.40 | 8.66 | 8.62 | 8.89 |  |  |  |  |  |  |
| O=C(Nc1ccc2cc1CCc1cccc(c1)Nc1ncc(Cl)c(n1)N2)c1ccoc1 [Example B59, N-[6-Chloro-2,4,8,22-tetraazatetracyclo[14.3.1.1(3,7).1(9,13)]docosa-1(20), 3(22),4,6,9(21),10,12,16,18-nonaen-12-yl]-3-furamide trifluoroacetate] | 6.15 | 8.29 | 8.28 | 8.62 | 8.62 |  |  |  |  |  |  |
| CC(C)S(=O)(=O)N1CCC(CC(=O)Nc2ccc3cc2CCc2cccc(c2)Nc2ncc(Cl)c(n2)N3)CC1 [Example A82, N-[6-Chloro-2,4,8,22-tetraazatetracyclo[14.3.1.1(3,7).1(9,13)]docosa-1(20),3(22),4,6,9(21),10,12,16,18-nonaen-12-yl]-2-[1-(isopropylsulfonyl)piperidin-4-yl]acetamide trifluoroacetate] |  |  |  |  |  | 31% | 7.77 | 7.89 | 8.43 | 8.14 |  |
| Cc1cc(C(=O)Nc2ccc3cc2CCc2cccc(c2)Nc2ncc(Cl)c(n2)N3)no1 [Example B68, N-[6-Chloro-2,4,8,22-tetraazatetracyclo[14.3.1.1(3,7).1(9,13)]docosa-1(20), 3(22),4,6,9(21),10,12,16,18-nonaen-12-yl]-5-methylisoxazole-3-carboxamide trifluoroacetate] |  | 7.72 | 8.44 | 8.64 | 8.85 |  |  |  |  |  | 19% |
| N#Cc1ccc(NC(=O)Nc2ccc3cc2CCc2cccc(c2)Nc2ncc(Cl)c(n2)N3)cc1 [Example B96, N-[6-Chloro-2,4,8,22-tetraazatetracyclo[14.3.1.1(3,7).1(9,13)]docosa-1(20), 3(22),4,6,9(21),10,12,16,18-nonaen-12-yl]-N′-(4-cyanophenyl)urea trifluoroacetate] | < 6.00 | 7.35 | 7.92 | 8.22 | 9.00 |  |  |  |  |  |  |
| CC(C)(C)OC(=O)N1CCC(C(=O)Nc2ccc3cc2CCc2cccc(c2)Nc2ncc(Cl)c(n2)N3)CC1 [Example A27, tert-Butyl 4-({[6-chloro-2,4,8,22-tetraazatetracyclo[14.3.1.1(3,7).1(9,13)]docosa-1(20),3(22),4,6,9(21),10,12,16,18-nonaen-12-yl]amino}carbonyl)piperidine-1-carboxylate trifluoroacetate] |  |  |  |  |  | 21% | 6.91 | 7.37 | 7.25 | 7.21 |  |
